Here are results for 2 molecules from paper PMC6212536, “Allosteric Site Inhibitor Disrupting Auto-Processing of Malarial Cysteine Proteases” (Scientific Reports, 2018).

For assay [1], the target named is T1, pro-falcipain-2 (pro-FP2) (Plasmodium falciparum, UniProt Q8I6U4).
T1 construct: gene FP2A
In words: SPR, immobilized pro-enzyme; auto-processing also blocked. It is filed as binding.

Assay [2] deals with pro-falcipain-3 (pro-FP3) (Plasmodium falciparum, UniProt Q8IIL0). The description is as above. It is filed as binding.
Chain of pro-falcipain-3 (pro-FP3) (Q8IIL0 57-492): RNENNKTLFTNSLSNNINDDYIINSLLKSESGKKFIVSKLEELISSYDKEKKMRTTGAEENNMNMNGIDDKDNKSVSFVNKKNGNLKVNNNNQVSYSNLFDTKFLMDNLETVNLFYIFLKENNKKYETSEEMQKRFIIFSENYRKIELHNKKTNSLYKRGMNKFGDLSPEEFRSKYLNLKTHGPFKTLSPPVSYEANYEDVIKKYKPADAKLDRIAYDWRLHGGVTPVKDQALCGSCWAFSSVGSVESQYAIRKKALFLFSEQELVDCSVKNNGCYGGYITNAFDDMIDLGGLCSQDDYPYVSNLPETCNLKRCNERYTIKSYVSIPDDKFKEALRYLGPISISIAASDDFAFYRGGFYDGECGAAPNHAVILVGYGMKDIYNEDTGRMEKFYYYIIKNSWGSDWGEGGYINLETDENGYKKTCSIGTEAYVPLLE

T1 sequence (Q8I6U4 208-484): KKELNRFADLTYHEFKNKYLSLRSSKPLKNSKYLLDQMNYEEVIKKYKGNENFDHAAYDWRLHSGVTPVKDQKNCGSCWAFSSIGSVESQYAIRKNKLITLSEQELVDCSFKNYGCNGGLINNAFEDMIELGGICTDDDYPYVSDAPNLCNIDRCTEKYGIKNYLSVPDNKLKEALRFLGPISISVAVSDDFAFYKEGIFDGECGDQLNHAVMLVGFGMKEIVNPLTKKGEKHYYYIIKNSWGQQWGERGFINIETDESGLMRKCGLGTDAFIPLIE

Regarding `O=C(CC1(CNC(=O)c2cnccn2)CCCCC1)NNC(=O)c1cnccn1` [NA-01], the Kd is 1.72 ± 0.03 nM in assay [1] and 5.14 ± 0.07 nM in assay [2].
Taken in the same sequence, the figures for `O=C(CC1(NC(=O)c2cnccn2)CCCCC1)NNC(=O)c1cnccn1` [NA-03] were 1.67 ± 0.01 nM and 2 ± 0.04 nM.
